Assay results reported in PubChem BioAssay AID328 (DTP/NCI, 2004).
Where “and” joins values, the source holds several entries; their conditions need not be identical. Equal entries are not always repeated. Toxic doses and inconclusive results are not listed.

System: BDF1 mice, P388 leukemia ip, median survival T/C
Test: NCI In Vivo Anticancer Drug Screen. Data for tumor model P388 Leukemia (intraperitoneal) in B6D2F1 (BDF1) mice
Conditions: endpoint: median survival time, higher = longer survival
Procedure, shortened: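 Mice carrying the transplantable tumour receive compound or vehicle. Survival is followed in each arm, and the treated measure is divided by the vehicle measure.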

[1] = dose: 50.0 mg/kg/injection, schedule: Q01DX009 (ip), vehicle: saline with Tween-80
[2] = dose: 100.0 mg/kg/injection, schedule: Q01DX009 (ip), vehicle: saline with Tween-80
[3] = dose: 200.0 mg/kg/injection, schedule: Q01DX009 (ip), vehicle: saline
[4] = dose: 100.0 mg/kg/injection, schedule: Q04DX003 (ip), vehicle: saline with Tween-80
[5] = dose: 200.0 mg/kg/injection, schedule: Q04DX003 (ip), vehicle: saline with Tween-80
[6] = dose: 400.0 mg/kg/injection, schedule: Q04DX003 (ip), vehicle: saline with Tween-80

Q: With O=C(Nc1cccc2c(OC(=O)C(Cl)Cl)c(N=Nc3ccc(S(=O)(=O)Nc4nccs4)cc3)cc(N=Nc3ccc(S(=O)(=O)Nc4nccs4)cc3)c12)C(Cl)Cl (tested in a mixture with another compound) as the compound, how does the T/C (dose: 50.0 mg/kg/injection, schedule: Q01DX005 (ip), vehicle: saline with Tween-80) read?
A: Its T/C is 103 % of control.

Q: And the T/C [1]?
A: Its T/C is 110 % of control.

Q: And the T/C (dose: 100.0 mg/kg/injection, schedule: Q01DX005 (ip), vehicle: saline with Tween-80)?
A: The T/C was 103 % of control.

Q: And the T/C [2]?
A: Its T/C is 124 % of control.

Q: O=C(O)C(=O)O.OO.OO.OO.[Nb] was tested. Which T/C [3] did it give?
A: Its T/C is 86 % of control.

Q: With CCOC(=O)/C=C(\C)Nc1ccc(NC(C)=O)cc1 as the compound, how does the T/C (dose: 25.0 mg/kg/injection, schedule: Q01DX009 (ip), vehicle: water) read?
A: The T/C was 91 % of control.

Q: And the T/C (dose: 50.0 mg/kg/injection, schedule: Q01DX009 (ip), vehicle: water)?
A: The T/C was 89 % of control.

Q: And the T/C (dose: 50.0 mg/kg/injection, schedule: Q04DX003 (ip), vehicle: water)?
A: Its T/C is 106 % of control.

Q: What about the T/C (dose: 100.0 mg/kg/injection, schedule: Q01DX009 (ip), vehicle: water) of the same compound?
A: The T/C was 94 % of control.

Q: And the T/C (dose: 100.0 mg/kg/injection, schedule: Q04DX003 (ip), vehicle: water)?
A: The T/C was 111 % of control.

Q: And the T/C (dose: 200.0 mg/kg/injection, schedule: Q01DX009 (ip), vehicle: water)?
A: The T/C was 110 % of control.

Q: What about the T/C (dose: 200.0 mg/kg/injection, schedule: Q04DX003 (ip), vehicle: water) of the same compound?
A: The T/C was 120 % of control.

Q: And the T/C (dose: 400.0 mg/kg/injection, schedule: Q01DX009 (ip), vehicle: water)?
A: The T/C was 94 % of control.

Q: What about the T/C (dose: 400.0 mg/kg/injection, schedule: Q04DX003 (ip), vehicle: water) of the same compound?
A: The T/C was 103 % of control.

Q: With CCCC1CC(C(=O)NC(C(C)Cl)C2OC(SC)C(O)C(O)C2O)N(C)C1 (centres undefined) as the compound, how does the T/C (dose: 50.0 mg/kg/injection, schedule: Q01DX009 (ip), vehicle: saline) read?
A: Its T/C is 100 % of control.

Q: And the T/C (dose: 100.0 mg/kg/injection, schedule: Q01DX009 (ip), vehicle: saline)?
A: Its T/C is 94 % of control.

Q: What about the T/C [3] of the same compound?
A: The T/C was 102 % of control.

Q: Which results are given for COc1cc(OC)c(OC)cc1/C=C\c1ccnc2ccccc12?
A: T/C (dose: 133.0 mg/kg/injection, schedule: Q01DX010 (ip), vehicle: saline): 120 % of control; T/C (dose: 200.0 mg/kg/injection, schedule: Q01DX009 (ip), vehicle: carboxymethylcellulose (CMC)): 116 % of control; T/C (dose: 200.0 mg/kg/injection, schedule: Q01DX010 (ip), vehicle: saline): 120 % of control; T/C (dose: 400.0 mg/kg/injection, schedule: Q01DX009 (ip), vehicle: carboxymethylcellulose (CMC)): 166 % of control; T/C (dose: 450.0 mg/kg/injection, schedule: Q01DX010 (ip), vehicle: saline): 120 % of control

Q: COC(=N)CCCCCC(=N)OC was tested. Which T/C (dose: 50.0 mg/kg/injection, schedule: Q01DX005 (ip), vehicle: saline) did it give?
A: Its T/C is 92 % of control.

Q: What about the T/C (dose: 100.0 mg/kg/injection, schedule: Q01DX005 (ip), vehicle: saline) of the same compound?
A: Its T/C is 97 % of control.

Q: What about the T/C (dose: 200.0 mg/kg/injection, schedule: Q01DX005 (ip), vehicle: saline) of the same compound?
A: The T/C was 87 % of control.

Q: How did the T/C (dose: 25.0 mg/kg/injection, schedule: Q01DX009 (ip), vehicle: saline with Tween-80) turn out when CC(=O)[C@H]1CC[C@H]2[C@@H]3CCC4=CC(=O)[C@H](C)C[C@]4(C)[C@@]3(F)[C@@H](O)C[C@]12C was run?
A: Its T/C is 100 % of control.

Q: And the T/C [1]?
A: Its T/C is 100 % of control.

Q: And the T/C [2]?
A: The T/C was 95 % of control and 104 % of control.

Q: And the T/C [4]?
A: Its T/C is 100 % of control.

Q: What about the T/C [5] of the same compound?
A: The T/C was 100 % of control.

Q: What about the T/C [6] of the same compound?
A: Its T/C is 90 % of control.

Q: What does the source list for CC1(c2cccc(N)c2)OCCO1?
A: T/C [2]: 100 % of control; T/C [4]: 90 % of control; T/C (dose: 200.0 mg/kg/injection, schedule: Q01DX009 (ip), vehicle: saline with Tween-80): 95 % of control; T/C [5]: 109 % of control; T/C (dose: 400.0 mg/kg/injection, schedule: Q01DX009 (ip), vehicle: saline with Tween-80): 90 % of control; T/C [6]: 109 % of control

Q: What does the source list for COc1ccc(N/N=C(\C)C2(O)Cc3c(O)c4c(c(O)c3C(OC3CC(N)C(O)C(C)O3)C2)C(=O)c2c(OC)cccc2C4=O)cc1 (centres undefined)?
A: T/C (dose: 1.73 mg/kg/injection, schedule: Q04DX003 (ip), vehicle: water): 123 % of control; T/C (dose: 4.8 mg/kg/injection, schedule: Q04DX003 (ip), vehicle: water): 157 % of control

Q: Cc1cc(=O)oc2c(N)nccc12 was tested. Which T/C (dose: 12.5 mg/kg/injection, schedule: Q01DX005 (ip), vehicle: saline with Tween-80) did it give?
A: The T/C was 121 % of control.

Q: How did the T/C (dose: 1.56 mg/kg/injection, schedule: Q01DX009 (ip), vehicle: saline with Tween-80) turn out when CCCCCCCCCCCCCCCC(=O)N(C/C=C/CN(CCCN(C)C)C(=O)CCCCCCCCCCCCCCC)CCCN(C)C was run?
A: The T/C was 95 % of control.

Q: What about the T/C (dose: 3.13 mg/kg/injection, schedule: Q01DX009 (ip), vehicle: saline with Tween-80) of the same compound?
A: The T/C was 100 % of control.

Q: And the T/C (dose: 6.25 mg/kg/injection, schedule: Q01DX009 (ip), vehicle: saline with Tween-80)?
A: Its T/C is 113 % of control.

Q: What about the T/C (dose: 12.5 mg/kg/injection, schedule: Q01DX009 (ip), vehicle: saline with Tween-80) of the same compound?
A: Its T/C is 95 % of control and 100 % of control.
